Consider one molecule from patent US7815900B1, “Use of C3-C5 monosaccharides to protect keratinous fibers” (L'Oréal S.A., priority 2000, dated 2010).

This test in a line: Protein loss from hair in water. To be noted: bleached hair treated 5 times (1% solutions; Xylo-Biose Syrup 1.5%), then 1 h at 45° C. in deionized water. Here is the method:
XyloBiose Syrup is a raw material that contains about 15 wt % of xylobiose (dimer) and about 12 wt % of xylose. Xylo-Oligo 95P is a raw material containing about 22 wt % of xylobiose. Bleached hair was rinsed and blot-dried with a paper-towel. The treatment solution was then applied to the hair for 10 min at 45° C., and the hair was blow-dried. The procedure was repeated 5 times. Each of the following solutions was tested: • 1% D-Xylose • 1% Xylo-Oligo 95P • 1.5% XyloBiose Syrup • deionized water-control treatment
Following blow drying, a hair swatch (0.5 g) was immersed in 25 mL of deionized water for 1 h at 45° C. and the water was analyzed for the protein content. Id.

Consider `O=C[C@H](O)[C@@H](O)[C@H](O)CO` [D-Xylose], for which the Protein loss is recorded as 200.9 +/− 36.5 microgram/g hair.
